# Reference: patent publication US12661355B2, “Compounds and methods for inducing UCP1 expression” (The Regents of the University of California, priority 2020, dated 2026)
# Molecular target: T1, AKAP1 (Mus musculus, UniProt O08715)
# T1 construct: from tissue; host or cells: mouse brown adipose tissue (BAT) lysate; also mouse brown adipocyte extracts
# T1 sequence (O08715 30-857): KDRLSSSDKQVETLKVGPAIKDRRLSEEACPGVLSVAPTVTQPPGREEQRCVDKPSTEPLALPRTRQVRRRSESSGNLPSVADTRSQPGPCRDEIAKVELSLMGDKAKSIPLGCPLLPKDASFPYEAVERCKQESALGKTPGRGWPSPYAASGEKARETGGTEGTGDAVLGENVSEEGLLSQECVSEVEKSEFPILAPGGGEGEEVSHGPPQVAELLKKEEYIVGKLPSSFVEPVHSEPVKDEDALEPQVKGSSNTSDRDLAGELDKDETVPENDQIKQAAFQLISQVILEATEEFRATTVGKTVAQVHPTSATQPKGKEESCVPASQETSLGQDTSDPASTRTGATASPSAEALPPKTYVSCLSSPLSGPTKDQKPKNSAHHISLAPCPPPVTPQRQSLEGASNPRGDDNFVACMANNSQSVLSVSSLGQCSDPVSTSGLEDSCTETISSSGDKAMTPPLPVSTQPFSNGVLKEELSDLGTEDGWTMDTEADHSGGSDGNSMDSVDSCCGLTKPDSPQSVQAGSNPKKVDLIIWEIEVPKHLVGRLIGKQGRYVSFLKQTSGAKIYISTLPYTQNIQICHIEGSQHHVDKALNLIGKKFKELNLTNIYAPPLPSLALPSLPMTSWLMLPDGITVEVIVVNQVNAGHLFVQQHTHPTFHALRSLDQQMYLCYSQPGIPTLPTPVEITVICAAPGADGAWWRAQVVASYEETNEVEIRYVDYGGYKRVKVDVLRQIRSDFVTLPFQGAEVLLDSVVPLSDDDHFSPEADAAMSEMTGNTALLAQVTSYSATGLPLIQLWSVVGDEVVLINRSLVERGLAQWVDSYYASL
# Experiment: Western blot of mitochondria-associated proteins, AKAP1
# Type: cell-based
# Settings: brown adipocytes, 10 μM, after 6-8 h
# Experimental: Cells and tissues were lysed in 10 mM Tris pH 7.5, 10 mM NaCl, 1 mM EDTA and 0.5% Triton X-100, supplemented with complete mini EDTA-free protease (Roche Diagnostics) and phosphatase (Cocktail 2 and 3, Sigma) inhibitors, followed by 10 second sonication. For analysis of mitochondrial proteins, mitochondria were isolated from cells by dual centrifugation, as described. Protein lysates were separated by SDS-PAGE and transferred to a nitrocellulose membrane. Transfer was confirmed by Ponceau staining (P7170, Sigma). After blocking in 5% milk, 0.1% Tween-20 in Tris-buffered saline (TBS), primary antibody was incubated overnight at 4° C. in 5% bovine serum albumin and 0.1% Tween-20 in TBS. Primary antibodies against ACTB (GTX109639, GeneTex), AKAP1 (5203, Cell Signaling), AKAP6 (07-087, Millipore), Cytochrome c (136F3, Cell Signaling), electron transport chain protein complexes (Total OXPHOS rodent WB antibody cocktail ab110413, Abcam), GAPDH (GTX100118, Genetex), active p38 MAPK (V1211, Promega), total p38 MAPK (8690, Cell Signaling), PGC1α (AB3242, Millipore), phospho-(Ser/Thr) PKA substrate (9621, Cell Signaling), PKA C-α (4782, Cell Signaling), PKA RII-β (ab75993, Abcam), and UCP1 (662045, Calbiochem) were used at 1:2000. […] Quantification using representative bands from the Ponceau staining was performed with ImageJ. […]
smiles,measurement,value
COc1ccc(NC(=O)CSc2nc3ccccc3c(=O)[nH]2)c(OC)c1 [Z160],AKAP1 protein levels in the mitochondrial fraction,increased
